Results on two compounds are retold here after patent US20060229255A1, “Identification of n-alkylglycine trimers for induction of apoptosis” (priority 2003, published 2006).

For one assay, the system named is Bcl-xL. As to the kind of experiment: Western blot of Bcl-xL phosphorylation. In kind it is cell-based, human. The note with it: HT29 cells, 3, 6 and 24 h. Here is the method: Western blotting. Floating and adherent cells were harvested and pellets were resuspended in RIPA buffer (50 mM Tris/HCl 7.4, 250 mM NaCl, 0,5% Igepal CA630, 5 mM EDTA, 1 mM PMSF, 10 μg/ml leupeptin, 50 mM NaF, 0.1 mM Na3VO4) or Deoxycholate buffer (10 mM phosphate buffer 7.4, […] NaCl, 0.5% Deoxycholate, 1% Igepal, 0.1% SDS, 1 mM PMSF). Protein concentration was determined with BCA Protein Assay Kit (Pierce) for RIPA extracts or Bradford assay (BioRad) for Deoxycholate extracts. Total protein (20-30 μg/lane) were separated by SDS-PAGE, transferred to PVDF membranes (Gellman), and probed with antibodies against Bcl-xL (Transduction); Bax (Santa Cruz); JNK (Santa Cruz); phospho-JNK (Cell Signaling); pRb (Pharmingen); pRb-phospho Ser780 (Cell Signalling); p130 (Santa Cruz); p107 (Santa Cruz); Cdk2 (Santa Cruz); p27^Kip1 (Santa Cruz); p21^Cip1 (Santa Cruz); actin (Sigma); or tubulin (ICN) and developed with ECL system (AmershamPharmacia biotech)
FIG. 6. (A) JNK is activated after N13-13-10C treatment. HT29 cells were treated for 1, 3, 6 and 24 h with N13-13-10C (35 μM), harvested and immunoblotted to assess activation of SAP/JNK MAP kinase. Western blot was first probed with the JNK-phosphor specific antibody, was stripped and reprobed with the pan-JNK antibody and actin to normalize total protein level. […]
A general note: Immunoblotting shows a protein as a band on a membrane.

For the next assay, the system named is HT29 cells. Description: Annexin V-FITC detection assay. In kind it is cell-based, human. The note with it: HT29, 35 μM, 40 h treatment. The protocol: Annexin V assay. Treated cells were harvested with EDTA 0.02% in Hank's Balanced Salt Solution (HBSS), washed in HBSS then in PBS (phosphate buffered saline) containing 1% BSA (Bovine serum albumine) and finally resuspended in Annexin V incubation buffer (10 mM HEPES 7.4; 140 mM NaCl; 2.5 mM CaCl2) containing 1% BSA. 10^5 cells were incubated with 5 μl Annexin-V-FITC (Bender MedSystems) for 1 h at room temperature and in the dark. Dead cells were stained with Propidium Iodide (PI) at 2 μg/ml. The analysis was immediately performed by flow cytometry.
FIG. 5. Detection of early apoptosis. Annexin V assay after 40 h of treatment with DMSO (right panel), N13-13-10C, 35 µM (central panel), or Taxol, 11 nM (left panel). HT29 treated cells were stained with Annexin V-FITC and PI and subjected to flow cytometry. Fluorescence dot blots of annexin V positive (vertical axis) and PI positive (horizontal axis, logarithmic values) cells are shown. Cell distribution expressed as percentage of the population is indicated: early apoptotic cells in quadrant 1, Q1 (AnV+/IP−); dead cells in Q2 (AnV+/IP+); living cells in Q3 (AnV−/IP−); necrotic cells in Q4 (AnV−/IP+).

On to `COc1ccc(CCN(CC(=O)N(CCc2ccccc2)CC(N)=O)C(=O)CNCCc2ccccc2)cc1` [N10-13-10C], for which the “Bcl-xL phosphorylation (slower migrating band)” value with Bcl-xL is “not observed”.

For `COc1ccc(CCNCC(=O)N(CCc2ccc(OC)cc2)CC(=O)N(CCc2ccccc2)CC(N)=O)cc1` [N13-13-10C], in the assay with HT29 cells, the “Early apoptotic cells (IP negative, Annexin V positive)” value was determined as 14% and the “Increase of early apoptotic cells with respect to control cells” value was determined as 3.5 fold.
